Source: patent publication US5342840A, “Cyclopropane derivative” (Ajinomoto Co., Inc., priority 1991, dated 1994)
≈ marks a conversion by molar mass, not a printed value.

Legend:
HSV-1 (strain KOS) = test: Anti-herpes activity, plaque-reduction assay in Vero cells, HSV-1 (strain KOS); assay type: cell-based; conditions: Human alphaherpesvirus 1, 168 h, 7 days at 37° C., read-out: ID50 HSV-1 (concentration of compound causing 50% inhibition of plaque formation)
Procedure: (§1) Anti-herpes activity was measured in a plaque-reduction assay (Lopez, C. et al., J. Antimicrob. Agents Chemother., 17, 803 (1980). Confluent monolayers of Vero cells in 6-well plates were infected with 100 plaque forming units of either HSV-1 (strain KOS) or HSV-2 (strain 186). The infected monolayers were incubated at 37° C. for 1 hour and then overlaid with maintenance medium containing 1% agarose and various concentrations of test compounds. The monolayers were incubated for a further 7 days at 37° C., after which the cells were fixed and stained, the plaques were counted, and the concentration of compound causing 50% inhibition of plaque formation was calculated.

HSV-2 (strain 186) = test: Anti-herpes activity, plaque-reduction assay in Vero cells, HSV-2 (strain 186); assay type: cell-based; conditions: Human alphaherpesvirus 2, 168 h; HSV-2 strain 186, Vero cells, 7 days at 37° C.; read-out: ID50 HSV-2 (concentration of compound causing 50% inhibition of plaque formation)
Procedure: as §1

| Structure (SMILES) | IC50 (HSV-1 (strain KOS)) [µg/mL] | IC50 (HSV-2 (strain 186)) [µg/mL] |
| --- | --- | --- |
| Nc1nc(Cl)c2ncn(CC3(CO)CC3CO)c2n1 (stereo not shown) | 34 (≈ 120 µM) | – |
| Nc1ccn(CC2(CO)CC2CO)c(=O)n1 (stereo not shown) | 120 (≈ 533 µM) | – |
| Nc1ncnc2c1ncn2CC1(CO)CC1CO (stereo not shown) | 47 (≈ 189 µM) | – |
| Nc1nc2c(ncn2COCCO)c(=O)[nH]1 [Acyclovir, reference compound] | 0.57 (≈ 2.53 µM) | 0.4 (≈ 1.78 µM) |

Second part, the molecule after the results:

| IC50 (HSV-1 (strain KOS)) [µg/mL] | IC50 (HSV-2 (strain 186)) [µg/mL] | Structure (SMILES) |
| --- | --- | --- |
| 0.023 (≈ 0.0867 µM) | 0.24 (≈ 0.905 µM) | Nc1nc2c(ncn2C[C@]2(CO)C[C@H]2CO)c(=O)[nH]1 [Example 20, (-)-9-[1'S,2'R-bis(hydroxymethyl)cyclopropan-1'yl]methylguanine] |
| 10.4 (≈ 39.2 µM) | – | Nc1nc2c(ncn2C[C@]2(CO)C[C@@H]2CO)c(=O)[nH]1 (relative stereo) |
| 0.046 (≈ 0.173 µM) | 0.42 (≈ 1.58 µM) | Nc1nc2c(ncn2C[C@]2(CO)C[C@H]2CO)c(=O)[nH]1 (relative stereo) |
